molecular target: T1, Adrenergic β2 (Homo sapiens, UniProt P07550); experiment: Adrenergic β2 mediated cAMP production in H292 cells (AlphaScreen cAMP detection); format: cell-based; set-up: key to β2 Int Act: fraction of formoterol maximum activity (formoterol = 1); details: Intrinsic Activity as a fraction relative to the maximum activity determined for formoterol
T1 construct: Adherent H292 cells were removed from tissue culture flasks; endogenous in cells; host or cells: H292 cells
Procedure: Adrenergic β2 Mediated cAMP Production
H292 cells were grown in 225 cm2 flasks incubator at 37° C., 5% CO2 in RPMI medium containing, 10% (v/v) FBS (foetal bovine serum) and 2 mM L-glutamine.
Adherent H292 cells were removed from tissue culture flasks by treatment with Accutase™ cell detachment solution for 15 minutes. Flasks were incubated for 15 minutes in a humidified incubator at 37° C., 5% CO2. Detached cells were re-suspended in RPMI media (containing 10% (v/v) FBS and 2 mM L-glutamine) at 1×10^6 cells per mL. 10000 cells in 100 μL were added to each well of a tissue-culture-treated 96-well plate and the cells incubated overnight in a humidified incubator at 37° C., 5% CO2. The culture media was removed and cells were washed twice with 100 μL assay buffer and replaced with 50 μL assay buffer (HBSS solution containing 10 mM HEPES pH7.4 and 5 mM glucose). Cells were rested at room temperature for 20 minutes after which time 25 μL of rolipram (1.2 mM made up in assay buffer containing 2.4% (v/v) dimethylsulphoxide) was added. Cells were incubated with rolipram for 10 minutes after which time test compounds were added and the cells were incubated for 60 minutes at room temperature. The final rolipram concentration in the assay was 300 μM and final vehicle concentration was 1.6% (v/v) dimethylsulphoxide. The reaction was stopped by removing supernatants, washing once with 100 μL assay buffer and replacing with 50 μL lysis buffer. The cell monolayer was frozen at −80° C. for 30 minutes (or overnight).
AlphaScreen™ cAMP Detection
The concentration of cAMP (cyclic adenosine monophosphate) in the cell lysate was determined using AlphaScreen™ methodology. The frozen cell plate was thawed for 20 minutes on a plate shaker then 10 μL of the cell lysate was transferred to a 96-well white plate. 40 μL of mixed AlphaScreen™ detection beads pre-incubated with biotinylated cAMP, was added to each well and the plate incubated at room temperature for 10 hours in the dark. The AlphaScreen™ signal was measured using an EnVision spectrophotometer (Perkin-Elmer Inc.) with the recommended manufacturer's settings. cAMP concentrations were determined by reference to a calibration curve determined in the same experiment using standard cAMP concentrations. Concentration response curves for agonists were constructed and data was fitted to a four parameter logistic equation to determine both the pEC50 and Intrinsic Activity. Intrinsic Activity was expressed as a fraction relative to the maximum activity determined for formoterol in each experiment.

T1 sequence (P07550 whole entry): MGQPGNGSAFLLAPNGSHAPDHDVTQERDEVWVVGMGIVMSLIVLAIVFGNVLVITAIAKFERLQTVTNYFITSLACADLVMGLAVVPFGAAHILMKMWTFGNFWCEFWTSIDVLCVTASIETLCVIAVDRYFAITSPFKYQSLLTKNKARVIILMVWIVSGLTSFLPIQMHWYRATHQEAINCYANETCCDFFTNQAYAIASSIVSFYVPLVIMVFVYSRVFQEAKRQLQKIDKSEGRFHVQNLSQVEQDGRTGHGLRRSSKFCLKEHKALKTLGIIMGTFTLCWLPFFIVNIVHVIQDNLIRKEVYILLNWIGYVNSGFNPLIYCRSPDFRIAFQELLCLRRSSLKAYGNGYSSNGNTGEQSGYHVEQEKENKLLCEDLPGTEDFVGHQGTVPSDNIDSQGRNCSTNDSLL

β2 Int Act | Compound
0.96 | Cc1cc(CCNCCC(=O)N(CCNCCc2ccc(O)c3c2OCC(=O)N3)C2CCCCC2)ccc1F [Example 40, N-Cyclohexyl-3-(4-fluoro-3-methylphenethylamino)-N-(2-(2-(5-hydroxy-3-oxo-3,4-dihydro-2H-benzo[b][1,4]oxazin-8-yl)ethylamino)ethyl)propanamide bis(trifluoroacetate)]
0.95 | O=C1COc2c(CCNCCN(C(=O)CCNCCc3cc(F)cc(Cl)c3)C3CCCCC3)ccc(O)c2N1 [Example 41, 3-(3-Chloro-5-fluorophenethylamino)-N-cyclohexyl-N-(2-(2-(5-hydroxy-3-oxo-3,4-dihydro-2H-benzo[b][1,4]oxazin-8-yl)ethylamino)ethyl)propanamide bis(trifluoroacetate)]
0.9 | O=C1COc2c(CCNCCN(C(=O)CCNCCc3ccc(F)c(F)c3)C3CCCCC3)ccc(O)c2N1 [Example 42, N-Cyclohexyl-3-(3,4-difluorophenethylamino)-N-(2-(2-(5-hydroxy-3-oxo-3,4-dihydro-2H-benzo[b][1,4]oxazin-8-yl)ethylamino)ethyl)propanamide bis(trifluoroacetate)]
0.97 | O=C1COc2c(CCNCCN(C(=O)CCNCCc3ccc(C(=O)O)cc3)C3CCCCC3)ccc(O)c2N1 [Example 43, 4-(2-(3-(Cyclohexyl(2-(2-(5-hydroxy-3-oxo-3,4-dihydro-2H-benzo[b][1,4]oxazin-8-yl)ethylamino)ethyl)amino)-3-oxopropylamino)ethyl)benzoic acid bis(trifluoroacetate)]
0.89 | CCCC[C@@H](C)N(CCNCCc1ccc(O)c2c1OCC(=O)N2)C(=O)CCNCCc1cccc(Cl)c1 [Example 44, (R)-3-(3-Chlorophenethylamino)-N-(hexan-2-yl)-N-(2-(2-(5-hydroxy-3-oxo-3,4-dihydro-2H-benzo[b][1,4]oxazin-8-yl)ethylamino)ethyl)propanamide bis(trifluoroacetate)]
0.89 | CCCC[C@@H](C)N(CCNCCc1ccc(O)c2c1OCC(=O)N2)C(=O)CCNCCc1ccc(Cl)cc1 [Example 45, (R)-3-(4-Chlorophenethylamino)-N-(hexan-2-yl)-N-(2-(2-(5-hydroxy-3-oxo-3,4-dihydro-2H-benzo[b][1,4]oxazin-8-yl)ethylamino)ethyl)propanamide bis(trifluoroacetate)]
0.89 | CCCC[C@@H](C)N(CCNCCc1ccc(O)c2c1OCC(=O)N2)C(=O)CCNCCc1ccccc1Cl [Example 46, (R)-3-(2-Chlorophenethylamino)-N-(hexan-2-yl)-N-(2-(2-(5-hydroxy-3-oxo-3,4-dihydro-2H-benzo[b][1,4]oxazin-8-yl)ethylamino)ethyl)propanamide bis(trifluoroacetate)]
0.89 | CCCC[C@@H](C)N(CCNCCc1ccc(O)c2c1OCC(=O)N2)C(=O)CCNCCc1ccc(F)c(C)c1 [Example 47, (R)-3-(4-Fluoro-3-methylphenethylamino)-N-(hexan-2-yl)-N-(2-(2-(5-hydroxy-3-oxo-3,4-dihydro-2H-benzo[b][1,4]oxazin-8-yl)ethylamino)ethyl)propanamide bis(trifluoroacetate)]
0.91 | CCCC[C@@H](C)N(CCNCCc1ccc(O)c2c1OCC(=O)N2)C(=O)CCNCCc1ccc(F)c(Cl)c1 [Example 48, (R)-3-(3-Chloro-4-fluorophenethylamino)-N-(hexan-2-yl)-N-(2-(2-(5-hydroxy-3-oxo-3,4-dihydro-2H-benzo[b][1,4]oxazin-8-yl)ethylamino)ethyl)propanamide bis(trifluoroacetate)]

The next lines start with the molecule.

Compound | β2 Int Act
O=C1COc2c(CCNCCN(C(=O)CCNCCc3ccc(Cl)c(Cl)c3)C3CCCCCC3)ccc(O)c2N1 [Example 26, N-Cycloheptyl-3-(3,4-dichlorophenethylamino)-N-(2-(2-(5-hydroxy-3-oxo-3,4-dihydro-2H-benzo[b][1,4]oxazin-8-yl)ethylamino)ethyl)propanamide bis(trifluoroacetate)] | 0.74
O=C1COc2c(CCNCCN(C(=O)CCNCCc3cccc(Cl)c3)C3CCCCC3)ccc(O)c2N1 [Example 27, 3-(3-Chlorophenethylamino)-N-cyclohexyl-N-(2-(2-(5-hydroxy-3-oxo-3,4-dihydro-2H-benzo[b][1,4]oxazin-8-yl)ethylamino)ethyl)propanamide bis(trifluoroacetate)] | 0.89
O=C1COc2c(CCNCCN(C(=O)CCNCCc3ccccc3Cl)C3CCCCC3)ccc(O)c2N1 [Example 28, 3-(2-Chlorophenethylamino)-N-cyclohexyl-N-(2-(2-(5-hydroxy-3-oxo-3,4-dihydro-2H-benzo[b][1,4]oxazin-8-yl)ethylamino)ethyl)propanamide bis(trifluoroacetate)] | 0.86
O=C1COc2c(CCNCCN(C(=O)CCNCCc3cccc(Cl)c3Cl)C3CCCCC3)ccc(O)c2N1 [Example 29, N-Cyclohexyl-3-(2,3-dichlorophenethylamino)-N-(2-(2-(5-hydroxy-3-oxo-3,4-dihydro-2H-benzo[b][1,4]oxazin-8-yl)ethylamino)ethyl)propanamide bis(trifluoroacetate)] | 0.91
O=C1COc2c(CCNCCN(C(=O)CCNCCc3ccc(Cl)c(Cl)c3)C3CCCCC3)ccc(O)c2N1 [Example 30, N-Cyclohexyl-3-(3,4-dichlorophenethylamino)-N-(2-(2-(5-hydroxy-3-oxo-3,4-dihydro-2H-benzo[b][1,4]oxazin-8-yl)ethylamino)ethyl)propanamide bis(trifluoroacetate)] | 0.92
O=C1COc2c(CCNCCN(C(=O)CCNCCc3ccc(Cl)cc3Cl)C3CCCCC3)ccc(O)c2N1 [Example 31, N-Cyclohexyl-3-(2,4-dichlorophenethylamino)-N-(2-(2-(5-hydroxy-3-oxo-3,4-dihydro-2H-benzo[b][1,4]oxazin-8-yl)ethylamino)ethyl)propanamide bis(trifluoroacetate)] | 0.94
Cc1ccc(F)c(CCNCCC(=O)N(CCNCCc2ccc(O)c3c2OCC(=O)N3)C2CCCCC2)c1 [Example 33, N-Cyclohexyl-3-(2-fluoro-5-methylphenethylamino)-N-(2-(2-(5-hydroxy-3-oxo-3,4-dihydro-2H-benzo[b][1,4]oxazin-8-yl)ethylamino)ethyl)propanamide bis(trifluoroacetate)] | 0.9
O=C1COc2c(CCNCCN(C(=O)CCNCCc3cc(Cl)ccc3F)C3CCCCC3)ccc(O)c2N1 [Example 34, 3-(5-Chloro-2-fluorophenethylamino)-N-cyclohexyl-N-(2-(2-(5-hydroxy-3-oxo-3,4-dihydro-2H-benzo[b][1,4]oxazin-8-yl)ethylamino)ethyl)propanamide bis(trifluoroacetate)] | 0.9
O=C1COc2c(CCNCCN(C(=O)CCNCCc3cc(F)cc(F)c3)C3CCCCC3)ccc(O)c2N1 [Example 35, N-Cyclohexyl-3-(3,5-difluorophenethylamino)-N-(2-(2-(5-hydroxy-3-oxo-3,4-dihydro-2H-benzo[b][1,4]oxazin-8-yl)ethylamino)ethyl)propanamide bis(trifluoroacetate)] | 0.87
O=C1COc2c(CCNCCN(C(=O)CCNCCc3cccc(F)c3F)C3CCCCC3)ccc(O)c2N1 [Example 36, N-Cyclohexyl-3-(2,3-difluorophenethylamino)-N-(2-(2-(5-hydroxy-3-oxo-3,4-dihydro-2H-benzo[b][1,4]oxazin-8-yl)ethylamino)ethyl)propanamide bis(trifluoroacetate)] | 0.91
O=C1COc2c(CCNCCN(C(=O)CCNCCc3ccc(F)c(Cl)c3)C3CCCCC3)ccc(O)c2N1 [Example 37, 3-(3-Chloro-4-fluorophenethylamino)-N-cyclohexyl-N-(2-(2-(5-hydroxy-3-oxo-3,4-dihydro-2H-benzo[b][1,4]oxazin-8-yl)ethylamino)ethyl)propanamide bis(trifluoroacetate)] | 0.89
O=C1COc2c(CCNCCN(C(=O)CCNCCc3cc(F)ccc3F)C3CCCCC3)ccc(O)c2N1 [Example 38, N-Cyclohexyl-3-(2,5-difluorophenethylamino)-N-(2-(2-(5-hydroxy-3-oxo-3,4-dihydro-2H-benzo[b][1,4]oxazin-8-yl)ethylamino)ethyl)propanamide bis(trifluoroacetate)] | 0.98
O=C1COc2c(CCNCCN(C(=O)CCNCCc3cccc(Cl)c3F)C3CCCCC3)ccc(O)c2N1 [Example 39, 3-(3-Chloro-2-fluorophenethylamino)-N-cyclohexyl-N-(2-(2-(5-hydroxy-3-oxo-3,4-dihydro-2H-benzo[b][1,4]oxazin-8-yl)ethylamino)ethyl)propanamide bis(trifluoroacetate)] | 0.98

Reference: patent publication US20120142646A1, “Novel Compounds 621” (priority 2006, published 2012)
